pIC50: −log10 of the molar value.

In the experiment the target is PKMYT1 (Homo sapiens (Human), UniProt Q99640). Kind of experiment: PKMYT1 HTRF Assay. The class given is binding. The conditions noted are these: Tracer 178, GST-Tb; compound 10 μM to 0.5 nM; read-out: MYT1 HTRF IC50. Put shortly: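 Compound (final 10 μM to 0.5 nM) preincubated with PKMYT1 enzyme 15 min at 25° C, then Tracer 178 added for 60 min at 25° C. GST-Tb added, 15 min at 25° C, before HTRF readout.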
Chain of PKMYT1 (Q99640 whole entry): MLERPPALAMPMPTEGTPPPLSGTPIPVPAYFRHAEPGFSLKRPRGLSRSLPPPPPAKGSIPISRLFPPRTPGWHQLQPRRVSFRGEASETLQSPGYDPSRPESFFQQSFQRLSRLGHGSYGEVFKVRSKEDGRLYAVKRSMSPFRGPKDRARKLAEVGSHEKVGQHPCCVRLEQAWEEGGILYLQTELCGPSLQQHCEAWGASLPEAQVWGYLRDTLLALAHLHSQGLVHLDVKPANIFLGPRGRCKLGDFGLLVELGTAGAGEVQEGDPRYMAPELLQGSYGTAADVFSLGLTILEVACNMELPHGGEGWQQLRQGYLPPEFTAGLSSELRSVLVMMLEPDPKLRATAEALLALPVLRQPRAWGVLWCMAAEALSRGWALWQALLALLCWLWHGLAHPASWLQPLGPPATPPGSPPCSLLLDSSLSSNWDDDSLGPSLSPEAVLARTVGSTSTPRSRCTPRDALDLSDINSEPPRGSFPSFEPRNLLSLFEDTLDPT

For `Cc1ccc(O)c(C)c1-c1cnc2[nH]c(-c3cnn(CCCO)c3)cc2c1C#N` [Example 131, (S)-5-(3-hydroxy-2,6-dimethylphenyl)-2-(1-(3-hydroxypropyl)-1H-pyrazol-4-yl)-1H-pyrrolo[2,3-b]pyridine-4-carbonitrile], the pIC50 was greater than 8.00.
Regarding `Cc1ccc(O)c(C)c1-c1cnc2[nH]c(-n3cc(N)cn3)cc2c1C#N` [Example 133, (S)-2-(4-amino-1H-pyrazol-1-yl)-5-(3-hydroxy-2,6-dimethylphenyl)-1H-pyrrolo[2,3-b]pyridine-4-carbonitrile], the pIC50 is greater than 8.00.
As to `Cc1ccc(O)c(C)c1-c1cnc2[nH]c(-c3cn[nH]c(=O)c3)cc2c1C#N` [Example 134], the pIC50 was greater than 8.00.
Regarding `Cc1ccc(O)c(C)c1-c1cnc2[nH]c(-c3nnc[nH]3)cc2c1C#N` [Example 135, 5-(3-hydroxy-2,6-dimethylphenyl)-2-(4H-1,2,4-triazol-3-yl)-1H-pyrrolo[2,3-b]pyridine-4-carbonitrile], the pIC50 was greater than 8.00.

The values above are taken from patent publication US20250136596A1, “MEMBRANE-ASSOCIATED TYROSINE- AND THREONINE-SPECIFIC CDC2-INHIBITORY KINASE (PKMYT1) INHIBITORS AND USES THEREOF” (Insilico Medicine IP Limited, priority 2022, published 2025).
